{"source": "patent US20110028566A1", "about": "“COMPOSITIONS AND PRODUCTS CONTAINING CYCLOALIPHATIC DIOL ANTIMICROBIAL AGENTS AND METHODS OF USING THE COMPOSITIONS AND PRODUCTS” (EASTMAN CHEMICAL COMPANY, priority 2009, published 2011)", "key": {"[1]": {"system": "Escherichia coli ATCC 25922", "test": "MIC determination and synergy testing (Kull synergy index), microplate", "format": "cell-based", "details": "for QA, MIC of CHDM alone / QA/a: concentration of CHDM (MIC alone, or in the combination at an inhibitory concentration) / SI (synergy index) / QA/a: concentration of CHDM alone (QA, MIC) / QB/b: concentration of CG (MIC alone, or in the combination at an inhibitory concentration): E. coli; for QA/a: concentration of CHDM (MIC alone, or in the combination at an inhibitory concentration) / SI (synergy index) / QB/b: concentration of CG (MIC alone, or in the combination at an inhibitory concentration): plate 107A, CG and CHDM", "protocol": "The test cultures are listed in Table 7 along with the incubation temperatures used for growth and minimum inhibitory concentration (MIC) testing. […] C. albicans was cultured in Sabouraud dextrose broth (SDB) for approximately 44-52 hours for preparation of inoculum. A. niger was cultured on Sabouraud dextrose agar (SDA) for 3-4 days until there was confluent growth and visible spore formation. Spores were harvested from the SDA plates by flooding the surface of the plate with 5-10 mL of phosphate-buffered saline (PBS) and gently spreading the liquid across the surface of the plate with a sterile T-shaped plastic spreader (Copan Diagnostics) until there was a well-mixed suspension of spores. The resulting spore suspension was collected using a serological pipette and stored at 2-8° C. until use.\nInoculum concentration was determined by dilution plating of the cultures or spore suspension. A serial dilution in PBS was made to 10^−8 for the bacterial cultures or 10^−5 for the fungal cultures. Fifty or 100 μL of the final dilution was spread on two Trypticase-soy agar (TSA) plates for bacteria or two SDA plates for fungi. After 24 to 48 hours plates were counted and the concentrations used in each experiment were calculated.\nThe antimicrobial agents tested for synergy along with the respective diluents and working stock solution concentrations are shown below. For determination of MIC ranges, individual antimicrobial agent stock solutions were added to sterile medium to yield the highest level test concentrations, and then serially diluted in the medium to prepare the range of test concentrations. For synergy testing individual test concentrations were prepared in sterile medium, and then blended to form the desired combinations.\nMICs were determined using a high-throughput microplate method. Individual antimicrobial agents were added to TSB (pH 7.3) for bacterial testing or SDB (pH 5.6) for fungal testing at the highest concentration to be tested. A serial dilution series was prepared at a dilution ratio of 1:1.3333 such that a one log range was covered in nine dilutions. Two-hundred microliters of the diluted antimicrobial agents were dispensed into four wells each of a sterile, 96-well, flat-bottom microplate (Nalge Nunc International). Four additional wells of the highest concentration were dispensed to serve as uninoculated high-level controls. Eight additional wells containing only broth medium were also prepared, four to serve as negative controls and four as positive controls. Three wells of each antimicrobial agent dilution were inoculated with one of the test strains in Table 7. The final well of each antimicrobial agent dilution was left uninoculated to serve as a control (and means of compensating) for any absorbance/turbidity due to the test compounds.\nMicroplates were inoculated using the cultures or spore suspensions prepared as described above. The S. aureus cultures were used undiluted, while the E. coli and P. aeruginosa cultures were used either undiluted or after a 1:2 dilution in sterile TSB. The C. albicans cultures were used either undiluted or following a 2-fold concentration by centrifugation. One of two means of inoculation was used to deliver a final concentration of approximately 10^5 colony-forming units (CFU)/mL of C. albicans, 10^5 spores/mL of A. niger, or 10^6 CFU/mL of bacteria. The primary method used a stainless steel pin replicator (Nalge Nunc International) mounted on a hand-operated bench-top press (Schmidt Technology Corporation) fitted with a custom-built microplate holder to dispense one microliter of each inoculum from a “master” plate containing 50-100 μL of culture into the wells of the test plate. The pin replicator was sterilized before and between inoculations by immersing in ethanol and flaming. The alternative method of inoculation was by directly pipetting 20 μL of a 1:20 dilution of each culture or spore suspension into the appropriate wells of the test plates."}, "[2]": {"system": "Candida albicans", "test": "Microbial challenge testing in BPW", "format": "cell-based", "details": "for Grade code, C. albicans, 3 Day / Grade code, C. albicans, 14 Day / Grade code, C. albicans, 30 Days: BPW, w/v % in label, average of replicates", "procedure,_shortened": "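C. albicans was grown in TSB with 1% dextrose at 22°C and harvested by gauze filtration and centrifugation. It was then adjusted by turbidity in pH 7.2 phosphate buffer and checked by hemocytometer and SDA plate counts. The inoculum was added to BPW (pH 7.0, 1% dextrose) containing test materials, giving 10^5–10^6 cfu/mL at time zero.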"}}, "note": "Where “and” joins values, the source holds several entries; their conditions need not be identical. Equal values may be shown once.", "data": [{"smiles": "OCC1CCC(CO)CC1", "note": "(stereo not drawn) [1,4-CHDM, 1,4-cyclohexanedimethanol]", "values": [{"measurement": "QA/a", "setting": "[1]; CHDM alone (QA) or in combination with BA:DHA (a), plate 111A, day 1", "value": 1.73}, {"measurement": "QA/a", "setting": "[1]; CHDM alone (QA) or in combination with IPBC (a), plate 119A, day 1", "value": 1.73}, {"measurement": "QA/a", "setting": "[1]; CHDM alone (QA) or in combination with IPBC (a), plate 119A, day 2", "value": 1.73}, {"measurement": "QA/a", "setting": "[1]; CHDM: MIC alone (QA) or conc. in combination with CP (a), plate 110A, day 1", "value": 1.73}, {"measurement": "QA/a", "setting": "[1]; CHDM: MIC alone (QA) or conc. in combination with CP (a), plate 110A, day 2", "value": 1.73}, {"measurement": "QA, MIC of CHDM alone", "setting": "[1]; day 1 of incubation, plate 108A (MP series)", "value": 1.73, "unit": "weight percent"}, {"measurement": "QA, MIC of CHDM alone", "setting": "[1]; day 1 of incubation, plates 105A, 213A, 223A (PE series)", "value": "1.30 weight percent and 1.47 weight percent"}, {"measurement": "QA, MIC of CHDM alone", "setting": "[1]; day 2 of incubation, plate 108A (MP series)", "value": 1.73, "unit": "weight percent"}, {"measurement": "QA, MIC of CHDM alone", "setting": "[1]; day 2 of incubation, plates 105A, 213A, 223A (PE series)", "value": "1.30 weight percent and 1.47 weight percent"}, {"measurement": "QA/a: concentration of CHDM (MIC alone, or in the combination at an inhibitory concentration)", "setting": "[1]; day 1", "value": 1.73, "unit": "weight percent"}, {"measurement": "SI (synergy index)", "setting": "[1]; day 1", "value": 1.00}, {"measurement": "QA/a: concentration of CHDM (MIC alone, or in the combination at an inhibitory concentration)", "setting": "[1]; day 2", "value": 1.73, "unit": "weight percent"}, {"measurement": "SI (synergy index)", "setting": "[1]; day 2", "value": 1.00}, {"measurement": "QA/a: concentration of CHDM alone (QA, MIC)", "setting": "[1]; Table 44, Day 1", "value": 1.73, "unit": "weight percent"}, {"measurement": "QA/a: concentration of CHDM alone (QA, MIC)", "setting": "[1]; Table 44, Day 2", "value": 1.73, "unit": "weight percent"}, {"measurement": "QA/a: concentration of CHDM alone (QA, MIC)", "setting": "[1]; Table 47, Day 1", "value": 1.73, "unit": "weight percent"}, {"measurement": "QA/a: concentration of CHDM alone (QA, MIC)", "setting": "[1]; Table 47, Day 2", "value": 1.73, "unit": "weight percent"}, {"measurement": "Grade code C. albicans", "setting": "[2]; 0.5%, 3 days incubation", "value": "3 (101 to 1000 colonies (thus 1000 to 10,000 cfu/mL))"}, {"measurement": "Grade code C. albicans", "setting": "[2]; 0.5%, 14 days incubation", "value": "4 (1001 to 10,000 colonies (thus 10,000 cfu/mL to 100,000 cfu/mL))"}, {"measurement": "Grade code C. albicans", "setting": "[2]; 0.5%, 30 days incubation", "value": "4 (1001 to 10,000 colonies (thus 10,000 cfu/mL to 100,000 cfu/mL))"}, {"measurement": "Grade code C. albicans", "setting": "[2]; 1.25%, 3 days incubation", "value": "1 (1 to 51 colonies counted (thus 10 to 510 cfu/mL))"}, {"measurement": "Grade code C. albicans", "setting": "[2]; 1.25%, 14 days incubation", "value": "3 (101 to 1000 colonies (thus 1000 to 10,000 cfu/mL))"}, {"measurement": "Grade code C. albicans", "setting": "[2]; 1.25%, 30 days incubation", "value": "4 (1001 to 10,000 colonies (thus 10,000 cfu/mL to 100,000 cfu/mL))"}, {"measurement": "Grade code C. albicans", "setting": "[2]; 2.5%, 3 days incubation", "value": "0 (No growth detected or <1 colony (thus <10 cfu/mL))"}, {"measurement": "Grade code C. albicans", "setting": "[2]; 2.5%, 14 days incubation", "value": "2 (52 to 100 colonies counted (thus 520 to 1000 cfu/mL))"}, {"measurement": "Grade code C. albicans", "setting": "[2]; 2.5%, 30 days incubation", "value": "1 (1 to 51 colonies counted (thus 10 to 510 cfu/mL))"}, {"measurement": "Grade code, C. albicans, 3 Day", "setting": "[2]; 3 days incubation, listed as 0.5% AB", "value": "3 (101 to 1000 colonies (thus 1000 to 10,000 cfu/mL))"}, {"measurement": "Grade code, C. albicans, 3 Day", "setting": "[2]; 3 days incubation, listed as 1.25% AB", "value": "1 (1 to 51 colonies counted (thus 10 to 510 cfu/mL))"}, {"measurement": "Grade code, C. albicans, 3 Day", "setting": "[2]; 3 days incubation, listed as 2.5% AB", "value": "0 (No growth detected or <1 colony (thus <10 cfu/mL))"}, {"measurement": "Grade code, C. albicans, 14 Day", "setting": "[2]; 14 days incubation, listed as 0.5% AB", "value": "4 (1001 to 10,000 colonies (thus 10,000 cfu/mL to 100,000 cfu/mL))"}, {"measurement": "Grade code, C. albicans, 14 Day", "setting": "[2]; 14 days incubation, listed as 1.25% AB", "value": "3 (101 to 1000 colonies (thus 1000 to 10,000 cfu/mL))"}, {"measurement": "Grade code, C. albicans, 14 Day", "setting": "[2]; 14 days incubation, listed as 2.5% AB", "value": "2 (52 to 100 colonies counted (thus 520 to 1000 cfu/mL))"}, {"measurement": "Grade code, C. albicans, 30 Days", "setting": "[2]; 30 days incubation, listed as 0.5% AB", "value": "4 (1001 to 10,000 colonies (thus 10,000 cfu/mL to 100,000 cfu/mL))"}, {"measurement": "Grade code, C. albicans, 30 Days", "setting": "[2]; 30 days incubation, listed as 1.25% AB", "value": "4 (1001 to 10,000 colonies (thus 10,000 cfu/mL to 100,000 cfu/mL))"}, {"measurement": "Grade code, C. albicans, 30 Days", "setting": "[2]; 30 days incubation, listed as 2.5% AB", "value": "1 (1 to 51 colonies counted (thus 10 to 510 cfu/mL))"}]}, {"smiles": "CCCCCCC(O)CO", "note": "(stereo not drawn) [CG, 1,2-octanediol]", "values": [{"measurement": "QB/b: concentration of CG (MIC alone, or in the combination at an inhibitory concentration)", "setting": "[1]; day 1", "value": 0.16, "unit": "weight percent"}, {"measurement": "SI (synergy index)", "setting": "[1]; day 1", "value": 1.00}, {"measurement": "QB/b: concentration of CG (MIC alone, or in the combination at an inhibitory concentration)", "setting": "[1]; day 2", "value": 0.16, "unit": "weight percent"}, {"measurement": "SI (synergy index)", "setting": "[1]; day 2", "value": 1.00}, {"measurement": "Grade code, C. albicans, 3 Day", "setting": "[2]; 3 days incubation", "value": "3 (101 to 1000 colonies (thus 1000 to 10,000 cfu/mL))"}, {"measurement": "Grade code, C. albicans, 14 Day", "setting": "[2]; 14 days incubation", "value": "0 (No growth detected or <1 colony (thus <10 cfu/mL))"}, {"measurement": "Grade code, C. albicans, 30 Days", "setting": "[2]; 30 days incubation", "value": "0 (No growth detected or <1 colony (thus <10 cfu/mL))"}]}]}
